Read-outs that look alike come from different tables or passages of the source.
Assays:
adult S. mansoni worms = experiment: Treatment of adult S. mansoni worms in culture with inhibitors (attachment to tissue culture substrate, morphology; single 10 μM and dose-response EC50); format: cell-based, Schistosoma mansoni; conditions: for EC50: Schistosoma mansoni; for effect on adult worms: benzoxazole propiolamide series, treated 72 hours, monitored until D5
Protocol: Adult S. mansoni (NMRI strain) (6–7 weeks post-infection) worms were harvested from infected female Swiss Webster mice by hepatic portal vein perfusion using 37°C DMEM (Mediatech, Manassas, VA), 8% Horse Serum, and heparin.
Roughly 5 adult worm pairs were placed in 3mL Basch medium in a 12-well culture vessel, and incubated at 37°C, 5% CO2 for the length of the experiment. Compound was administered at D0, D1, and D2, media and drug refreshed every 24 hr. Worms were then allowed to remain in culture until D5, where a final assessment of worm attachment to tissue culture substate was made by light microscopy. Observations on movement and morphology were also recorded. A negative control (0.1% DMSO) and positive control (PZQ; 10 μM in 0.1% DMSO) were included in each experiment, and each experiment was repeated in triplicate for validation. For compounds that caused complete detachment in replicate experiments, the treatment was expanded to three concentrations (10 μM, 5 μM, and 1 μM) following the same treatment schedule and controls as detailed above. […] Each titration experiment was performed in triplicate according to the treatment regimen described above, using DMSO and PZQ as appropriate controls. Morphologies and motility were assessed by light microscopy, and dose-response curves were calculated using the primary readout of parasite attachment to tissue culture substrate in GraphPad Prism. […]
[…] Values were calculated using Prism.

[1] = biological target: S. mansoni p97 (Smp_018240) (Schistosoma mansoni, UniProt G4M0P7); experiment: biochemical; conditions: for Fold Selectivity: H. sapiens vs S. mansoni p97 IC50; for Fold Selectivity / IC50: Suppl. Fig. 9C; for IC50: Sm p97, 100 μM – 1 nM, read-out: S. mansoni IC50; for activity on the enzyme: schistosome p97
S. mansoni p97 (Smp_018240), sequence (G4M0P7 entry or part of it): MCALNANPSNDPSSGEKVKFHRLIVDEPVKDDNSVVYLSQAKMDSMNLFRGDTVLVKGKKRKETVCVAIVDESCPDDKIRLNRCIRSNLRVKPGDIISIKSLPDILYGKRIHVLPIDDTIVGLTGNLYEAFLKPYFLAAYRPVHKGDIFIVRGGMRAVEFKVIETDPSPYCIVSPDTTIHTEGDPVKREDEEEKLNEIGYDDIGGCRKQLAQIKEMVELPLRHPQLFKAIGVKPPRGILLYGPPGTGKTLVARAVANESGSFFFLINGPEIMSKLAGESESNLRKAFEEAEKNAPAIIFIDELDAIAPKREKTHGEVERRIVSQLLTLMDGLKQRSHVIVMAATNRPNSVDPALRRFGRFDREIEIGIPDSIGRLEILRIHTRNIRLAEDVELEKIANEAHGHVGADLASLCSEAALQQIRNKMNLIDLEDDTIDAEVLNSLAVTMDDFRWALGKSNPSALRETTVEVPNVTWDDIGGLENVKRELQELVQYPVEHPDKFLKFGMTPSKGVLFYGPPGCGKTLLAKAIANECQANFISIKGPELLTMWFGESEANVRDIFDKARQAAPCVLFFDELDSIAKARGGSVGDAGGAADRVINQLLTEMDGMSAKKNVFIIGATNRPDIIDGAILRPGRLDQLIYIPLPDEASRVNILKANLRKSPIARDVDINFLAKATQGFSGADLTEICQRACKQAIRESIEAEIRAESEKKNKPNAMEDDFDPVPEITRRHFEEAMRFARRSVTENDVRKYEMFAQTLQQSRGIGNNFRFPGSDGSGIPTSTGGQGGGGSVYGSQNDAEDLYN
Protocol: E. coli BL21 (DE3) containing the desired plasmid were grown in LB medium containing […] kanamycin while shaking at 37 °C to an OD600 of 0.6–0.8. The temperature was reduced to 18°C and 0.8 mM isopropyl-beta-D-thiogalactopyranoside (IPTG) was added. The bacterial culture was harvested 16hr later by centrifugation. The resulting pellet was suspended in 60 mL lysis buffer/2L bacterial culture [20 mM Tris (pH 7.4), 300 mM NaCl, 5 mM MgCl2, 20 mM imidazole, 1% Triton X-100, 1 mg/mL lysozyme, 10% glycerol, 3 mM β-mercaptoethanol, 0.2 mM PMSF, and protease inhibitor tablet (Roche)]. […] The lysate was centrifuged at 40,000 × rpm for 35 min at 4°C. The resulting supernatant was incubated with Ni-NTA beads equilibrated to lysis buffer for 1 hr at 4°C before being loaded onto a gravity column. The bead bed was washed with wash buffer [20 mM Tris (pH 7.4), 500 mM NaCl, 5 mM MgCl2, 40 mM imidazole, 0.05% Triton X-100, 10% glycerol, 3 mM β-mercaptoethanol, 0.2 mM PMSF, 0.001 mg/mL Aprotinin, and 0.002 mg/mL Leupeptin], then eluted in the same buffer with 250 mM imidazole in wash buffer. Fractions containing p97 were concentrated using Pierce Protein Concentrators (100k MWCO) and loaded onto a gel-filtration column (Superdex 200PG) and eluted using SEC buffer [20 mM Tris (pH 7.4), 180 mM NaCl, 5 mM MgCl2, and 10% glycerol] at 0.5 mL/min flow rate on a BioRad NGC Chromatography System. Fractions corresponding to an apparent molecular weight of 500 – 600 kDa were collected and analyzed by 4–20% SDS/PAGE to evaluate purity. Concentration was determined using a BSA standard. Fractions containing purified protein were aliquoted, snap frozen in liquid nitrogen, and stored at −80 °C until use.
For manual ATP consumption assays, 1 μM p97 was incubated with 1% DMSO or inhibitor (1% DMSO final) in assay buffer [50 mM Tris (pH 7.5), 20 mM MgCl2, 1 mM EDTA, 0.5 mM tris(2-carboxyethyl)phosphine (TCEP)] for 5 minutes prior to the addition of 20 μM ATP in a 384-well plate for a total reaction volume of 10 μL, and a final concentration of 500nM enzyme and 10 μM ATP. The reaction was allowed to proceed for 50 minutes at room temperature before adding equivalent volume of Kinase-Glo Plus reagent (Promega), and a further incubation of 10 minutes in the dark.
IC50 values were calculated using GraphPad Prism.

H. sapiens p97 (P55072) = biological target: T1, H. sapiens p97 (P55072) (Homo sapiens, UniProt P55072); experiment: p97 ATPase activity, ATP consumption assay (Kinase-Glo), IC50 / counter screen; format: biochemical; conditions: Hs p97; 100 μM – 1 nM; Suppl. Fig. 9C
T1 construct: 6xHis (C); made in house; host or cells: E. coli BL21 (DE3)
T1 sequence (P55072 whole entry): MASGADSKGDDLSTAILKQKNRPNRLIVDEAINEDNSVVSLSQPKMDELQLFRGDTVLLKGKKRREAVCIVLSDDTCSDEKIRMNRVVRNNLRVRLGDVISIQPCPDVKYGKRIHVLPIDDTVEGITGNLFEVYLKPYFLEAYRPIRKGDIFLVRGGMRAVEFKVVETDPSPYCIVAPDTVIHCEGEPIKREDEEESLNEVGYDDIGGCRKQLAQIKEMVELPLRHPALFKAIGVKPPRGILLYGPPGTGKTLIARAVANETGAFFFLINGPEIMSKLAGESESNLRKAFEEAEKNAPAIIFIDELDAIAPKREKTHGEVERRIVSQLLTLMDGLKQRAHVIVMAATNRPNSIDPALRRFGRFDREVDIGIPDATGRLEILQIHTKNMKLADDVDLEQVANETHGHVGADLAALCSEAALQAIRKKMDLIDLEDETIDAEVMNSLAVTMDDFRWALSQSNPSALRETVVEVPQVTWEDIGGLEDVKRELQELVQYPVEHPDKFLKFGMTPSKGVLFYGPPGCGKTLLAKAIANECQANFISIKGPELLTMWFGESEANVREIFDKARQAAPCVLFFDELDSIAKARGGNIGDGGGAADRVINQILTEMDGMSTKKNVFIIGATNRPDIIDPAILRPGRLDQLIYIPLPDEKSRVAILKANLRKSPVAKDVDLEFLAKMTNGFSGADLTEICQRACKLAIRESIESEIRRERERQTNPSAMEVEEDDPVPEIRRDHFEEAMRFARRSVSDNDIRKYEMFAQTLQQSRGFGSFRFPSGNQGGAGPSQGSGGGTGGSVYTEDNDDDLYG

HepG2 cells = experiment: HepG2 cytotoxicity assay (Cell Titer Glo 2.0); format: cell-based, human; conditions: Homo sapiens
Protocol: HepG2 cells (ATCC) were plated at 2500 cells/well in 50 μL/well, dispersing cells using a 25g needle to break up clumps prior to plating. Plates were incubated for 24hr at 37C, 5% CO2. Following 24hr, 50 μL media containing 0.6% DMSO was added to a set of wells on one plate. The plate and Cell Titer Glo 2.0 reagent were brought to RT. A T=0 read was taken by adding 40 μL reagent/well, rocking the plate at 100 rpm for 2 min, then reading luminescence ~10 min later. […] 50 μL 2x concentrated compound was added to wells containing cells in 50 μL 24 hr after plating. Concentrations were tested in triplicate at following values: 30, 10, 3.3, 1.1, 0.37, 0.12, and 0.04 μM. Plates were incubated for 72 hr at 37C, 5% CO2. Following equilibration to room temperature, 40 μL undiluted reagent was added to each well, the plate rocked at 100 rpm for 2 min and then read for luminescent signal ~10 min later.
Values are plotted in excel and the 50% point determined by interpolation. Values were revisualized in Prism.

[2] = adult parasites, fraction of worms attached, 72 hours of drug treatment, in culture until D5, 50 μM - 10 nM, Suppl. Fig. 9C, read-out: S. mansoni EC50
[3] = adult worms, MEK1 inhibitor, read-out: EC50

SMILES	EC50 (adult S. mansoni worms; [2])	Fold Selectivity [1]	IC50 [1]	IC50 (H. sapiens p97 (P55072))	effect on adult worms (adult S. mansoni worms; 10 μM)	activity on the enzyme [1]	other results
Cc1ccc(-c2nc3cc(NC(=O)C#Cc4ccncc4)ccc3o2)nc1 [Compound 806, N-(2-(5-methylpyridin-2-yl)benzo[d]oxazol-5-yl)-3-(pyridin-4-yl)propiolamide]	3200 nM	1.1	470 ± 170 nM	510 ± 160 nM	–	–	GI50 (HepG2 cells; HepG2, 72 h): 1500 nM; IC50 (HepG2 cells; HepG2, 72 h): 1800 nM; GI50 (HepG2 cells; HepG2, read-out: HepG2 GI50): 1500 nM; IC50 (HepG2 cells; HepG2, read-out: HepG2 IC50): 1800 nM
Nc1nc(=O)n(-c2ccccc2Cl)c2nc(C(F)(F)F)ccc12 [IDE397, reference compound]	–	–	–	–	–	–	EC50 (adult S. mansoni worms): > 50000 nM
O=C(C#Cc1cccnc1)Nc1ccc2oc(-c3ccccn3)nc2c1 [Compound 738, N-(2-(pyridin-2-yl)benzo[d]oxazol-5-yl)-3-(pyridin-3-yl)propiolamide]	3500 nM	1.9	420 ± 57 nM	780 ± 140 nM	death of the parasites	–	time to detachment of adult worms in culture (adult S. mansoni worms; 10 μM): ≤ 24 h
O=C(C#Cc1ccccn1)Nc1ccc2oc(-c3ccccn3)nc2c1 [Compound 737, 3-(pyridin-2-yl)-N-(2-(pyridin-2-yl)benzo[d]oxazol-5-yl)propiolamide]	22000 nM	4.3	3000 ± 410 nM	13000 ± 2200 nM	decreased activity on the worms	decreased potency on the enzyme	–
O=C(C#CC1CC1)Nc1ccc2oc(-c3ccccn3)nc2c1 [Compound 732, 3-cyclopropyl-N-(2-(pyridin-2-yl)benzo[d]oxazol-5-yl)propiolamide]	1300 nM	–	> 100000 nM	–	still active on worms	abolishing activity on the enzyme	–
O=C(N[C@@H](C1CC1)C(F)(F)F)c1cc(-c2cnn3cc(-c4ccc(F)cc4)cnc23)cs1 [ULK-101, reference compound]	–	–	–	–	–	–	time in which inhibitor killed parasites (adult S. mansoni worms; initial concentration of 10 μM): ≤ 24 h
Cc1cccnc1-c1nc2cc(NC(=O)C#Cc3ccncc3)ccc2o1 [Compound 804, N-(2-(3-methylpyridin-2-yl)benzo[d]oxazol-5-yl)-3-(pyridin-4-yl)propiolamide]	760 nM	0.70	190 ± 63 nM	140 ± 62 nM	–	–	GI50 (HepG2 cells; HepG2, 72 h): 930 nM; IC50 (HepG2 cells; HepG2, 72 h): 1200 nM; GI50 (HepG2 cells; HepG2, read-out: HepG2 GI50): 930 nM; IC50 (HepG2 cells; HepG2, read-out: HepG2 IC50): 1200 nM
CN(C)CCc1nnc2cc(-c3ccccc3)c3cc(Cl)ccc3n12 [PF-9366, reference compound]	–	–	–	–	–	–	EC50 (adult S. mansoni worms): 43000 nM
O=C(NOC[C@H](O)CO)c1ccc(F)c(F)c1Nc1ccc(I)cc1F [Mirdametinib, reference compound]	–	–	–	–	–	–	EC50 (adult S. mansoni worms; [3]): > 50000 nM
CC(=O)Nc1cccc(-n2c(=O)n(C3CC3)c(=O)c3c(Nc4ccc(I)cc4F)n(C)c(=O)c(C)c32)c1 [Trametinib, reference compound]	–	–	–	–	–	–	EC50 (adult S. mansoni worms; [3]): 650 nM
O=C(C#Cc1ccc(Cl)cc1)Nc1ccc2oc(-c3ccccn3)nc2c1 [Compound 736, 3-(4-chlorophenyl)-N-(2-(pyridin-2-yl)benzo[d]oxazol-5-yl)propiolamide]	12000 nM	1.1	5900 ± 1300 nM	6700 ± 55 nM	decreased activity on the worms	decreased potency on the enzyme	–
COc1ccc(C#CC(=O)Nc2ccc3oc(-c4ccccn4)nc3c2)cc1 [Compound 734, 3-(4-methoxyphenyl)-N-(2-(pyridin-2-yl)benzo[d]oxazol-5-yl)propiolamide]	7000 nM	1.7	48000 ± 2600 nM	83000 ± 6500 nM	decreased activity on the worms	decreased potency on the enzyme	–
O=C(C#Cc1cccc(Cl)c1)Nc1ccc2oc(-c3ccccn3)nc2c1 [Compound 735, 3-(3-chlorophenyl)-N-(2-(pyridin-2-yl)benzo[d]oxazol-5-yl)propiolamide]	4200 nM	0.70	11000 ± 470 nM	7300 ± 660 nM	still active on worms	abolishing activity on the enzyme	–
Cc1ccnc(-c2nc3cc(NC(=O)C#Cc4ccncc4)ccc3o2)c1 [Compound 805, N-(2-(4-methylpyridin-2-yl)benzo[d]oxazol-5-yl)-3-(pyridin-4-yl)propiolamide]	2000 nM	0.80	170 ± 92 nM	140 ± 78 nM	–	–	GI50 (HepG2 cells; HepG2, 72 h): 1200 nM; IC50 (HepG2 cells; HepG2, 72 h): 1600 nM; GI50 (HepG2 cells; HepG2, read-out: HepG2 GI50): 1200 nM; IC50 (HepG2 cells; HepG2, read-out: HepG2 IC50): 1600 nM
Cc1cccc(-c2nc3cc(NC(=O)C#Cc4ccncc4)ccc3o2)n1 [Compound 807, N-(2-(6-methylpyridin-2-yl)benzo[d]oxazol-5-yl)-3-(pyridin-4-yl)propiolamide]	1800 nM	0.70	670 ± 170 nM	490 ± 57 nM	–	–	GI50 (HepG2 cells; HepG2, 72 h): 1100 nM; IC50 (HepG2 cells; HepG2, 72 h): 1400 nM; GI50 (HepG2 cells; HepG2, read-out: HepG2 GI50): 1100 nM; IC50 (HepG2 cells; HepG2, read-out: HepG2 IC50): 1400 nM

Reference: article doi:10.1101/2025.03.14.643303, “A genome-scale drug discovery pipeline uncovers new therapeutic targets and a unique p97 allosteric binding site in Schistosoma mansoni” (bioRxiv, 2025)
